In US20260219259A1, “METHOD FOR QUANTIFYING INSULIN SECRETION CAPACITY IN HUMAN CELL” (JUNTENDO EDUCATIONAL FOUNDATION, priority 2023, published 2026):

System: Huh7 cells
Test: Insulin production in Huh7 cells expressing Ngn3, Mafa and Pdx1, insulin quantified using HISCL HI-1000
Assay type: cell-based, human
Settings: concentration of from 1 to 30 nM; FIG. 8
Protocol: The recombinant SW872 cells that express 3 genes Ngn3, Mafa, and Pdx1 used here were expanded by long-term culture, and the resulting cells were subjected to the same experiment as above. […] Accordingly, a liver-derived cell line Huh7 was infected with Sendai virus vectors (TOKIWA-Bio Inc.) that express 3 genes Ngn3, Mafa, and Pdx1, cultured in a differentiation medium for β cells for 24 hours, and then transfected with expression plasmids of human KLF9 gene and human UCN3 gene using Lipofectamine 3000, and the amount of insulin produced was measured 5 days later. The expression plasmids of human KLF9 gene and human UCN3 gene were prepared by PCR and In-Fusion ligation reaction in the same manner as the method described in Example 3(1) using primers shown in SEQ ID NOs: 65 and 66 and SEQ ID NOS: 69 and 70. pEBMulti-Hyg was used as a negative control, and pEBMulti-hIns was used as a positive control. […] Insulin was quantified using HISCL HI-1000 (Sysmex Corp.). […]
Human SW872 cells that produce hIns-HiBiT5 were infected with Sendai virus vectors that express 3 genes Ngn3, Mafa, and Pdx1 in the same manner as in Example 4, and cultured in a differentiation medium for β cells for 24 hours. […] The method for quantifying insulin was performed in the same manner as in Example 4. […]

CCCC(CCC)C(=O)O [valproic acid] was tested, and the “insulin production from the Huh7 cells” value was “promoted insulin production”.
